Source: the NIST ThermoML archive (doi:10.1016/j.tca.2016.03.002)

Assay: refractive index (Na D-line) (dimensionless); xn = mol fraction of the nth substance listed
Conditions: 100 kPa, Liquid, Standard Abbe refractometry

NC1CCCCC1 [cyclohexylamine] + CO
refractive index
Conditions | 293.15 K | 298.15 K | 303.15 K
x2 = 0 | 1.45934 | 1.45663 | 1.45325
x2 = 0.0702 | 1.45717 | 1.45462 | 1.45212
x2 = 0.1177 | 1.45561 | 1.45309 | 1.45064
x2 = 0.2006 | 1.45245 | 1.45014 | 1.44761
x2 = 0.3049 | 1.44774 | 1.44542 | 1.4431
x2 = 0.4041 | 1.44199 | 1.43954 | 1.43715
x2 = 0.4986 | 1.43478 | 1.43243 | 1.42999
x2 = 0.5392 | 1.43072 | 1.42852 | 1.42613
x2 = 0.597 | 1.42424 | 1.42256 | 1.42012
x2 = 0.6609 | 1.41597 | 1.41393 | 1.41198
x2 = 0.7024 | 1.40945 | 1.40787 | 1.40569
x2 = 0.746 | – | – | 1.39807
x2 = 0.7999 | 1.39047 | 1.38877 | 1.38677
x2 = 0.8535 | – | 1.3759 | –
x2 = 0.8572 | 1.37655 | 1.37494 | 1.37247
x2 = 0.8985 | 1.36493 | 1.36313 | –
x2 = 0.9032 | 1.36365 | – | 1.35944
x2 = 0.949 | 1.34836 | 1.34625 | 1.3444
